According to US20210147544A1, “METHODS AND COMPOSITIONS FOR TARGETED DELIVERY OF ACTIVE AGENTS AND IMMUNOMODULATORY AGENTS TO LYMPH NODES” (IMMUNOVACCINE TECHNOLOGIES INC., priority 2018, published 2021):

Assays:
lymph node cells = type: in vivo, C57BL/6 mice; settings: group E: 20 mg/kg/day CPA in drinking water for seven days before FP/PolyI:C composition; vs group F
Protocol: Pathogen free, C57BL/6 mice, 6-8 weeks of age, were purchased from Charles River Laboratories (St. Constant, PQ) and housed according to institutional guidelines with water and food ad libitum under filter controlled air circulation.
(§1) Mice in group A (n=5) were injected in the right flank with 50 microliters of the CPA composition containing 0.04 milligrams of CPA and injected in the left flank with 50 microliters of the FP/DNA based PolyI:C polynucleotide composition containing 10 micrograms of FP and 20 micrograms of DNA based polyl:C polynucleotide adjuvant.
as §1, with “group B” for “group A”, “containing 0.4” for “containing 0.04”
Mice in group C (n=5) were injected in the right flank with 50 microliters of the CPA/FP/PolyI:C composition containing 0.04 milligrams of CPA and 10 micrograms of FP and 20 micrograms of DNA based polyI:C polynucleotide adjuvant.
Mice in group D (n=5) were injected in the right flank with 50 microliters of the CPA/FP/PolyI:C composition containing 0.4 milligrams of CPA and 10 micrograms of FP and 20 micrograms of DNA based polyI:C polynucleotide adjuvant. […]

[1] = Evans Blue (EVB) positive cells in LN, blood, liver, spleen by flow cytometry; type: in vivo, C57B1/6 mice
Protocol: (§2) C57B1/6 mice (n=3 per time point) were injected subcutaneously on study day 0 with 1 mg of Evans Blue (EVB) dye formulated either in a composition of the invention (DPX, group 1) or in an aqueous solution (group 2). Control groups were injected subcutaneously with DPX not containing EVB (group 3) or not given an injection (group 4). DPX compositions were prepared according to the methods detailed in Example 1. The freeze-dried vial was reconstituted in Montanide® ISA 51 VG (SEPPIC, France). Cells were collected from the vaccine-draining lymph nodes (LN), blood, liver, and spleen from 2-3 mice of each group on study days 1, 2, 5, and 7, and the cells were stained to detect different cell populations by flow cytometry.
EVB (MW 960.81 g/mol) is a membrane impermeant dye with high affinity for serum albumin that can penetrate into non-viable cells or be actively internalized by phagocytic cells, such as macrophages and dendritic cells.

[2] = Photographs of plasma, skin and draining lymph node after EVB injection; type: in vivo, C57B1/6 mice
Protocol: as §2

[3] = Body weights of C3 tumour mice during EPA treatment; type: in vivo; settings: all with mCPA (PO), oral EPA given with DPX-FP
Protocol: Mice (n=8 per group) were implanted with C3 cancer cells on study day 0. Mice in all treatment groups were treated with 0.4 mg metronomic cyclophosphamide (mCPA) daily for seven days through drinking water starting on study day 7 and 21 (oral administration: PO). One group was untreated as a control. One treatment group was treated with epacadostat (EPA) through oral gavage 6 mg/day for five days starting on study day 14 for a total EPA dose of 30 mg over 5 days. Mice were treated with a composition of the invention (DPX) containing either FP alone (DPX-FP) or FP in combination with EPA (DPX-FP/EPA, 1 mg EPA). DPX was administered by subcutaneous injection to the treatment groups on study day 14 and 28, for a total EPA dose of 2mg over […] in the group receiving DPX-FP/EPA. The DPX compositions were prepared according to the methods detailed in Example 1. All DPX-FP and DPX-FP/EPA formulations contained 20 micrograms of DNA based PolyI:C polynucleotide adjuvant. The freeze-dried vials were reconstituted in 0.7 mL of Montanide® ISA 51 VG (SEPPIC, France) to obtain a clear solution (FIG. 1; Panel D).

[4] = AlexaFluor488 (AF488) positive cells in LN, blood, liver, spleen by flow cytometry; type: in vivo, C57B1/6 mice
Protocol: as §2, with “mice (n=2-3” for “mice (n=3”, “with 0.1” for “with 1”, “of AlexaFluor488 hydrazide (AF488)” for “of Evans Blue (EVB)”, “containing AF488” for “containing EVB”
AF488 (MW 773.91 g/mol) is a membrane impermeant fluorescent dye that can be actively internalized by phagocytic cells, such as macrophages and dendritic cells.

[5] = 1 mg EVB s.c., days 1, 2, 5, 7, significance compared to group 3
[6] = by day 2, including CD3+ T cells
[7] = 0.1 mg AF488 s.c., days 1, 2, 5, 7, significance compared to group 3

Compound: O=P1(N(CCCl)CCCl)NCCCO1 (centres unmarked) [CPA, N,N-bis(2-chloroethyl)-1,3,2-oxazaphosphinan-2-amine 2-oxide]
- total lymph node cell counts (lymph node cells): significantly lower cell counts compared to group F

Compound: Cc1cc(-c2ccc(/N=N/c3ccc4c(S(=O)(=O)O)cc(S(=O)(=O)O)c(N)c4c3O)c(C)c2)ccc1/N=N/c1ccc2c(S(=O)(=O)O)cc(S(=O)(=O)O)c(N)c2c1O [EVB in aqueous solution, Evans Blue]
- EVB+ CD11c+ dendritic cells in the liver ([1]; 1 mg EVB s.c.): a large number dendritic cells were EVB+ by day 2
- EVB+ CD11b+ cells in the LN (FIG. 10A) [1, 5]: significant number of EVB^+ CD11b^+ cells on all days tested
- EVB+ CD11b+ cells in the blood (FIG. 10D) [1, 5]: significant number of EVB^+ CD11b^+ cells on all days tested
- EVB+ CD11b+ cells in the liver (FIG. 10G) [1, 5]: significant number of EVB^+ CD11b^+ cells on all days tested
- EVB+ CD11b+ cells in the spleen (FIG. 10J) [1, 5]: significant number of EVB^+ CD11b^+ cells on all days tested
- EVB+ T cells in the LN (FIG. 10C) [1, 5]: significant number of EVB^+ T cells on all days tested
- EVB+ T cells in the blood (FIG. 10F) [1, 5]: significant number of EVB^+ T cells on all days tested
- EVB+ T cells in the liver (FIG. 10I) [1, 5]: significant number of EVB^+ T cells on all days tested
- EVB+ T cells in the spleen (FIG. 10L) [1, 5]: significant number of EVB^+ T cells on all days tested
- EVB+ dendritic cells in the LN (FIG. 10B) [1, 5]: significant number of EVB^+ dendritic cells on all days tested
- EVB+ dendritic cells in the blood (FIG. 10E) [1, 5]: significant number of EVB^+dendritic cells on all days tested
- EVB+ dendritic cells in the liver (FIG. 10H) [1, 5]: significant number of EVB^+ dendritic cells on days 2 and 7
- EVB+ dendritic cells in the spleen (FIG. 10K) [1, 5]: significant number of EVB^+dendritic cells on all days tested
- EVB release into and clearance from the LN (FIGS. 10A-C) ([1]; 1 mg EVB s.c., days 1 to 7): had still not been cleared from the LN by day 7
- EVB release into and clearance from the blood (FIGS. 10D-F) ([1]; 1 mg EVB s.c., days 1 to 7): still not been cleared from the blood by day 7
- EVB release into and clearance from the spleen (FIGS. 10J-L) ([1]; 1 mg EVB s.c., days 1 to 7): still saturated in CD11b+ macrophages and T cells by day 7
- saturation of cell types in the blood with EVB ([1]; 1 mg EVB s.c., days 1 to 7): CD11b+ macrophages and CD3+ T cells that were still nearly saturated on day 7
- macrophages and T cells EVB+ in the liver ([1]; by day 1-2): ~100%
- cells EVB+ in the spleen ([1]; by day 1-2, including CD3+ T cells): ~100%
- cells EVB+ in the LN [1, 6]: ~100%
- cells EVB+ in the blood [1, 6]: ~100%
- blue colouration of skin, injection site and draining LN (FIG. 13) ([2]; 1 mg EVB s.c.): turned blue
- colour of plasma (FIG. 12) ([2]; days 1, 2, 5, and 7 after injection): dark blue

Compound: NS(=O)(=O)NCCNc1nonc1C(=NO)Nc1ccc(F)c(Br)c1 [oral EPA (PO), epacadostat]
- weight loss during treatment (body weights) [3]: significant weight loss during treatment

Compound: AlexaFluor488 hydrazide [AF488 in aqueous solution]
- AF488 release into the blood (FIGS. 11D-F) ([4]; 0.1 mg AF488 s.c.): quickly peaked at day 1
- release of AF488 into the spleen (FIGS. 11G-I) ([4]; 0.1 mg AF488 s.c.): rapid and significant release of AF488 into the spleen in all cell types
- AF488+ CD11b+ cells in the LN (FIG. 11A) [4, 7]: significant number of AF488^+CD11b^+ cells on days 1 and 2
- AF488+ CD11b+ cells in the blood (FIG. 11D) [4, 7]: significant number of AF488^+ CD11b^+ cells on days 1 and 2
- AF488+ T cells in the LN (FIG. 11C) [4, 7]: significant number of AF488^+ T cells on day 1
- AF488+ T cells in the blood (FIG. 11F) [4, 7]: significant number of AF488^+ T cells on days 1 and 2
- AF488+ T cells in the liver (FIG. 11I) [4, 7]: significant number of AF488^+ T cells on all days collected
- AF488+ dendritic cells in the LN (FIG. 11B) [4, 7]: significant number of AF488^+ dendritic cells on day 1
- AF488+ dendritic cells in the blood (FIG. 11E) [4, 7]: significant number of AF488^+ dendritic cells on days 1 and 2
- AF488+ dendritic cells in the liver (FIG. 11H) [4, 7]: significant number of AF488^+ dendritic cells on days 1, 2, and 5
- AF488+ monocytes in the liver (FIG. 11G) [4, 7]: significant number of AF488^+ monocytes on days 1, 2, and 5
- AF488 release into and clearance from the LN (FIGS. 11A-C) ([4]; 0.1 mg AF488 s.c., days 1 to 7): quickly peaked at day 1 and AF488 was cleared by day 5-7
- circulating CD11b+ cells being AF488+ ([4]; blood, days 1-2): over 70%
